From patent US10961235B2, “Crystalline form of masitinib” (Sandoz AG, priority 2017, dated 2021)
Where two headings read alike, the source gives them in different places. Each block holds one compound with its values, some of them ahead of it.

Experiments:
[1] = cited from earlier work; for hygroscopicity (in words): as described in prior filings
[2] = cited from earlier work
[3] = GMS, 15 to 80% RH, form A comparison (same range as FIG. 6 of WO2017/016512A1); cited from earlier work
[4] = Gravimetric moisture sorption (GMS) of crystalline forms of masitinib mesylate; assay type: physicochemical
Description: Gravimetric moisture sorption/desorption (GMSD) isotherms were recorded with an SPSx-1μ moisture sorption analyzer (ProUmid, Ulm). The measurement cycle was started at ambient relative humidity (RH) of 25%. Relative humidity was then decreased to 5% RH in 5% steps, followed by a further decrease to 3% RH and to 0% RH. Afterwards RH was increased from 0% to 80% RH in a sorption cycle in 5% steps.
The time per step was set to a minimum of 2 hours and a maximum of 6 hours. If an equilibrium condition with a constant mass of ±0.01% within 1 hour was reached before the maximum time for all examined samples the sequential humidity step was applied before the maximum time of 6 hours. If no equilibrium was achieved the consecutive humidity step was applied after the maximum time of 6 hours. The temperature was 25±0.1° C.

[5] = Storage stability of crystalline form M, polymorphic conversion checked by XRPD; assay type: physicochemical; conditions: for conversion to crystal form I by XRPD / storage stability: 8 weeks at 40° C./75% relative humidity
Description: X-Ray powder diffraction (XRPD) was performed with a PANalytical X'Pert PRO diffractometer equipped with a theta/theta coupled goniometer in transmission geometry, Cu—Kα1,2 radiation (wavelength 0.15419 nm) with a focusing mirror and a solid state PIXcel detector. Diffractograms were recorded at a tube voltage of 45 kV and a tube current of 40 mA, applying a stepsize of 0.013° 2-Theta with 40 s per step (255 channels) in the angular range of 2° to 40° 2-Theta at ambient conditions.

Bulk density = assay type: physicochemical

Compound: CS(=O)(=O)O.Cc1ccc(NC(=O)c2ccc(CN3CCN(C)CC3)cc2)cc1Nc1nc(-c2cccnc2)cs1 [form H, salt of masitinib with methane sulfonic acid]
hygroscopicity (in words) [1]: low hygroscopicity

Compound: masitinib mesylate [DRX2]
temperatures at which problems with polymorphic conversion occur ([2]; response to the eESR / EP2886543 A1, DRX2 to DRX1 upon heating): above 25 °C

Compound: masitinib mesylate [crystal form I]
water uptake in the range from 0% RH to 80% RH ([1]; 0% RH to 80% RH, described for DRX I): 4.3 w-%
behaviour at 80% relative humidity ([1]; 80% RH, WO 2008/098949 A2): remains dry
hygroscopicity (in words) ([1]; listed as DRX1): mildly hygroscopic
weight increase between 0% RH and 80% RH ([1]; response to the eESR, EP 11170200.7): 4.3 weight-%
temperatures at which thermodynamically stable ([2]; WO 2008/098949 A2): below 200 °C

Compound: masitinib mesylate [form A]
Mass change (water uptake) in the range of from 15-80% RH [3]: 4.0-6.0 w-%
hygroscopicity (in words) ([1]; listed as crystal form A): remarkably reduced compared to DRX1
reversible loss of water below 10% RH ([1]; moisture sorption/desorption curves, FIG. 6 of WO2017/016512A1): about 5 weight-%

hygroscopicity compared with form A [4]: less hygroscopic than form A
Mass change (water uptake / weight gain) in the range of from 15-80% RH ([4]; GMS, 15 to 80% RH, 25±0.1° C., form M, listed as Crystalline form M): 0.5-1.3 w-%
dependence of water content on relative humidity ([4]; range of 15% RH and 80% RH): relatively constant water content
conversion to crystal form I by XRPD / storage stability ([5]; listed as crystal form M): storage stable
time remaining stable as crystalline form M ([5]; 30° C. and 65% relative humidity): at least 8 weeks
time remaining stable as crystalline form M ([5]; 40° C. and 75% relative humidity): at least 8 weeks
bulk density (Bulk density): 0.14 g/mL
Compound: masitinib mesylate [form M]
conversion to crystal form I by XRPD after storage ([5]; 8 weeks at 30° C./60% relative humidity): did not convert to or show detectable traces of crystal form I
conversion to crystal form I by XRPD / storage stability ([5]; listed as crystalline form M): did not convert to or show detectable traces of crystal form I
polymorphic conversion on storage ([5]; at or below 40° C., relative humidity 15% RH to 75% RH): does not result in polymorphic conversion
